From patent publication US4351829A, “Use of polypeptides as analgesic drugs” (Farmitalia Carlo Erba Spa, priority 1980, dated 1982)
Read-outs that look alike come from different tables or passages of the source. Square brackets hold non-standard residues; d marks the D form. Peptide text beside a SMILES is read from it. sY = N[C@@H](Cc1ccc(OS(=O)(=O)O)cc1)C(=O)O; pGlu = O=C1CC[C@@H](C(=O)O)N1

Tests used:
[1] = cancer patients; intravenous bolus 1 nanogram/kg
Description: The average dosages for Cerulitide were from 0.5 nanograms/kg body weight (i.v.) to 300 nonograms/kg body weight (intramusculary), depending upon the treated pains, as set forth in the following examples.

CSCC[C@H](NC(=O)[C@H](Cc1c[nH]c2ccccc12)NC(=O)CNC(=O)[C@@H](NC(=O)[C@H](Cc1ccc(OS(=O)(=O)O)cc1)NC(=O)[C@H](CC(=O)O)NC(=O)[C@H](CCC(N)=O)NC(=O)[C@@H]1CCC(=O)N1)[C@@H](C)O)C(=O)N[C@@H](CC(=O)O)C(=O)N[C@@H](Cc1ccccc1)C(N)=O [Ceruletide] ([pGlu]QD[sY]TGWMDF-NH2)
Side-effects [1]: None | Side-effects (intramuscular 0.05 micrograms/kg, first injection): None | Side-effects (intramuscular 0.1 micrograms/kg): None and Burning sensation at the injection site and pain sensation at the injection site | Side-effects (second intramuscular injection 0.05 micrograms/kg): None
